Data as given in patent US20220089575A1, “FARNESOID X RECEPTOR AGONISTS AND USES THEREOF” (Metacrine, Inc., priority 2017, published 2022).

These molecules were tested against T1, hFXR (Homo sapiens, UniProt Q96RI1) (assay: In Vitro FXR Assay (TK): TK-ECRE-luc reporter in transfected CV-1 cells). Details: 18 hrs, luminescence, maximum efficacy of <25% of the Fexarmine control classified as '+'.
T1 construct: expressed in transfected cells; host or cells: CV-1 cells
T1 sequence (Q96RI1 1-486): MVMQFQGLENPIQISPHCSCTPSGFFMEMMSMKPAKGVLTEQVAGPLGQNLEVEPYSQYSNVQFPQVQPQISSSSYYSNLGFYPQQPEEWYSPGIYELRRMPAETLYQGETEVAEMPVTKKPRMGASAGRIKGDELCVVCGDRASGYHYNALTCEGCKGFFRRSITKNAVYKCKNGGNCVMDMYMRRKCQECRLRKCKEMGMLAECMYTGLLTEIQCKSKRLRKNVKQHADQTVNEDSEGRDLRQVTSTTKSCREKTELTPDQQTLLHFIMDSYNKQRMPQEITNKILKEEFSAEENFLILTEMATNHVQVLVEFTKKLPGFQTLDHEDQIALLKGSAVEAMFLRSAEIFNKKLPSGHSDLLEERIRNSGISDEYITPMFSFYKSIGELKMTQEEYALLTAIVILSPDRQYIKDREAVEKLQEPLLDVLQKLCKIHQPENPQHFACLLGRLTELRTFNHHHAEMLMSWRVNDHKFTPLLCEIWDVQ
T1 sequence (P19793 1-462 partner): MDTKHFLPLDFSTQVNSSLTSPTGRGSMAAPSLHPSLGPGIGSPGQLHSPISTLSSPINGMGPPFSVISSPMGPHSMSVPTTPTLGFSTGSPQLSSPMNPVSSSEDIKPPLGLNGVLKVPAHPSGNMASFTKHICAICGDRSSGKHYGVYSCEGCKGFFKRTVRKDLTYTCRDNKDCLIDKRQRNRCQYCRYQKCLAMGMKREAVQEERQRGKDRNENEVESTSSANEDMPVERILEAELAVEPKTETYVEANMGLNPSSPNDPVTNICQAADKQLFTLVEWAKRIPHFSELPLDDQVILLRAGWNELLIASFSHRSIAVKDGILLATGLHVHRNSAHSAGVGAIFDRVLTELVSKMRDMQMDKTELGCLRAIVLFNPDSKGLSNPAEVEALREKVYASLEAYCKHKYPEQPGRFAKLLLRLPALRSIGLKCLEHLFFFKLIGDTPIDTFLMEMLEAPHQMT
Format: cell-based
Protocol: CV-1 cells were seeded at a density of 2,000,000 cells in a T175 flask with DMEM+10% charcoal double-stripped FBS and incubated at 37° C. in 5% CO2 for 18 h (O/N).
After 18 h of incubation, the medium in the T175 flask was changed with fresh DMEM+10% charcoal super-stripped serum. In a polypropylene tube, 2500 μL OptiMEM (Life Technologies, Cat #31985-062) was combined with expression plasmids for hFXR, hRXR, TK-ECRE-luc and pCMX-YFP. The tube was then briefly vortexed and incubated at room temperature for 5 minutes. Transfection reagent (X-tremeGENE HP from Roche, Cat #06 366 236 001) was added to the OptiMEM/plasmid mixture vortexed and incubated at room temperature for 20 minutes. Following incubation, the transfection reagent/DNA mixture complex was added to cells in the T175 flask and the cells were incubated at 37° C. in 5% CO2 for 18 h (O/N).
Compounds were serially diluted in DMSO and added to transfected CV-1 cells. The cells were then incubated for 18 hrs. The next day cells were lysed and examined for luminescence.
`CNC(=O)O[C@H]1CC[C@H](C(=O)N(C[C@H]2CC[C@H](c3ccc(N(C)C)nc3)CC2)c2cccc(-c3cnc(C4CC4)s3)c2)CC1` [Compound 1, trans-4-((3-(2-Cyclopropylthiazol-5-yl)phenyl)((trans-4-(6-(dimethylamino)pyridin-3-yl)cyclohexyl)methyl)carbamoyl)cyclohexyl methylcarbamate] was tested, and the EC50 was ≤ 250 nM.
`CNC(=O)O[C@H]1CC[C@H](C(=O)N(C[C@H]2CC[C@H](c3ccc(OC)c(C)c3)CC2)c2cccc(-c3cnc(C4CC4)s3)c2)CC1` [Compound 1.01, trans-4-((3-(2-Cyclopropylthiazol-5-yl)phenyl)((trans-4-(4-methoxy-3-methylphenyl)cyclohexyl)methyl)carbamoyl)cyclohexyl methylcarbamate] was tested, and the EC50 was ≤ 250 nM.
In the case of `CNC(=O)O[C@H]1CC[C@H](C(=O)N(CC23CCC(c4ccc(N(C)C)nc4)(CC2)CC3)c2cccc(-c3cnc(C4CC4)s3)c2)CC1` [Compound 1.02, 4-((3-(2-Cyclopropylthiazol-5-yl)phenyl)((4-(6-(dimethylamino)pyridin-3-yl)bicyclo[2.2.2]octan-1-yl)methyl)carbamoyl)cyclohexyl trans-methylcarbamate], the EC50 is reported as ≤ 250 nM.
`CNC(=O)O[C@H]1CC[C@H](C(=O)N(C[C@H]2CC[C@H](c3ccc4c(c3)c(F)nn4C)CC2)c2cccc(-c3cnc(C4CC4)s3)c2)CC1` [Compound 1.03, trans-4-((3-(2-Cyclopropylthiazol-5-yl)phenyl)((trans-4-(3-fluoro-1-methyl-1H-indazol-5-yl)cyclohexyl)methyl)carbamoyl)cyclohexyl methylcarbamate] was tested, and the EC50 was ≤ 250 nM.
With `CNC(=O)O[C@H]1CC[C@H](C(=O)N(C[C@H]2CC[C@H](c3ccc(OC)c(C)c3)CC2)c2cccc(-c3cnn(C4CC4)c3)c2)CC1` [Compound 1.04, trans-4-((3-(1-Cyclopropyl-1H-pyrazol-4-yl)phenyl)((trans-4-(4-methoxy-3-methylphenyl)cyclohexyl)methyl)carbamoyl)cyclohexyl methylcarbamate] the EC50 was ≤ 250 nM.
In the case of `CNC(=O)O[C@H]1CC[C@H](C(=O)N(CC23CCC(c4ccc(OC)c(C)c4)(CC2)CC3)c2cccc(-c3cnn(C4CC4)c3)c2)CC1` [Compound 1.05, 4-((3-(1-Cyclopropyl-1H-pyrazol-4-yl)phenyl)((4-(4-methoxy-3-methylphenyl)bicyclo[2.2.2]octan-1-yl)methyl)carbamoyl)cyclohexyl trans-methylcarbamate], the EC50 is reported as ≤ 250 nM.
For `COc1ccc([C@H]2CC[C@H](CN(c3cccc(-c4cnn(C5CC5)c4)c3)C(=O)[C@H]3CC[C@H](OC(N)=O)CC3)CC2)cc1C` [Compound 1.06, trans-4-((3-(1-Cyclopropyl-1H-pyrazol-4-yl)phenyl)((trans-4-(4-methoxy-3-methylphenyl)cyclohexyl)methyl)carbamoyl)cyclohexyl carbamate], the EC50 was ≤ 250 nM.
For `COC(=O)O[C@H]1CC[C@H](C(=O)N(C[C@H]2CC[C@H](c3ccc(OC)c(C)c3)CC2)c2cccc(-c3cnn(C4CC4)c3)c2)CC1` [Compound 1.07, trans-4-((3-(1-Cyclopropyl-1H-pyrazol-4-yl)phenyl)((trans-4-(4-methoxy-3-methylphenyl)cyclohexyl)methyl)carbamoyl)cyclohexyl methyl carbonate], the EC50 was ≤ 250 nM.
For `COc1ccc(C23CCC(CN(c4cccc(-c5cnn(C6CC6)c5)c4)C(=O)[C@H]4CC[C@H](OC(N)=O)CC4)(CC2)CC3)cc1C` [Compound 1.08, 4-((3-(1-Cyclopropyl-1H-pyrazol-4-yl)phenyl)((4-(4-methoxy-3-methylphenyl)bicyclo[2.2.2]octan-1-yl)methyl)carbamoyl)cyclohexyl trans-carbamate], the EC50 was ≤ 250 nM.
For `CNC(=O)O[C@H]1CC[C@H](C(=O)N(C[C@H]2CC[C@H](c3ccc4c(c3)c(F)nn4C)CC2)c2cccc(-c3cnn(C4CC4)c3)c2)CC1` [Compound 1.09, trans-4-((3-(1-Cyclopropyl-1H-pyrazol-4-yl)phenyl)((trans-4-(3-fluoro-1-methyl-1H-indazol-5-yl)cyclohexyl)methyl)carbamoyl)cyclohexyl methylcarbamate], the EC50 was ≤ 250 nM.
With `CNC(=O)O[C@H]1CC[C@H](C(=O)N(C[C@H]2CC[C@H](c3ccc(OC)c(C)n3)CC2)c2cccc(-c3cnn(C(C)C)c3)c2)CC1` [Compound 1.10, trans-4-((3-(1-Isopropyl-1H-pyrazol-4-yl)phenyl)((trans-4-(5-methoxy-6-methylpyridin-2-yl)cyclohexyl)methyl)carbamoyl)cyclohexyl methylcarbamate] the EC50 was ≤ 250 nM.
For `CNC(=O)O[C@H]1CC[C@H](C(=O)N(C[C@H]2CC[C@H](c3ccc(OC)c(C)c3)CC2)c2cccc(-c3cc(C4CC4)ns3)c2)CC1` [Compound 2, trans-4-((3-(3-Cyclopropylisothiazol-5-yl)phenyl)((trans-4-(4-methoxy-3-methylphenyl)cyclohexyl)methyl)carbamoyl)cyclohexyl methylcarbamate], the EC50 was ≤ 250 nM.
For `CNC(=O)O[C@H]1CC[C@H](C(=O)N(C[C@H]2CC[C@H](c3ccc(OC)c(C)c3)CC2)c2cccc(-c3cnc(OC)s3)c2)CC1` [Compound 2.01, trans-4-(((trans-4-(4-Methoxy-3-methylphenyl)cyclohexyl)methyl)(3-(2-methoxythiazol-5-yl)phenyl)carbamoyl)cyclohexyl methylcarbamate], the EC50 was ≤ 250 nM.
With `CNC(=O)O[C@H]1CC[C@H](C(=O)N(C[C@H]2CC[C@H](c3ccc(OC)c(C)n3)CC2)c2cccc(-c3cnc(C4CC4)s3)c2)CC1` [Compound 2.02, trans-4-((3-(2-Cyclopropylthiazol-5-yl)phenyl)((trans-4-(5-methoxy-6-methylpyridin-2-yl)cyclohexyl)methyl)carbamoyl)cyclohexyl methylcarbamate] the EC50 was ≤ 250 nM.
`CNC(=O)O[C@H]1CC[C@H](C(=O)N(CC23CCC(c4ccc(OC)c(C)c4)(CC2)CC3)c2cc(-c3cnc(C4CC4)s3)ccn2)CC1` [Compound 2.03, 4-((4-(2-Cyclopropylthiazol-5-yl)pyridin-2-yl)((4-(4-methoxy-3-methylphenyl)bicyclo[2.2.2]octan-1-yl)methyl)carbamoyl)cyclohexyl trans-methylcarbamate] was tested, and the EC50 was ≤ 250 nM.
With `CNC(=O)O[C@H]1CC[C@H](C(=O)N(C[C@H]2CC[C@H](c3ccc(OC)c(C)c3)CC2)c2cccc(C#Cc3nccs3)c2)CC1` [Compound 2.04, trans-4-(((trans-4-(4-Methoxy-3-methylphenyl)cyclohexyl)methyl)(3-(thiazol-2-ylethynyl)phenyl)carbamoyl)cyclohexyl methylcarbamate] the EC50 was ≤ 250 nM.
For `CNC(=O)O[C@H]1CC[C@H](C(=O)N(CC23CCC(c4ccc(OC)c(C)c4)(CC2)CC3)c2cccc(C#Cc3nccs3)c2)CC1` [Compound 2.05, 4-(((4-(4-Methoxy-3-methylphenyl)bicyclo[2.2.2]octan-1-yl)methyl)(3-(thiazol-2-ylethynyl)phenyl)carbamoyl)cyclohexyl trans-methylcarbamate], the EC50 was ≤ 250 nM.
With `CNC(=O)O[C@H]1CC[C@H](C(=O)N(C[C@H]2CC[C@H](c3ccc(OC)c(C)c3)CC2)c2cccc(-c3coc(C4CC4)n3)c2)CC1` [Compound 2.06, trans-4-((3-(2-Cyclopropyloxazol-4-yl)phenyl)((trans-4-(4-methoxy-3-methylphenyl)cyclohexyl)methyl)carbamoyl)cyclohexyl) methylcarbamate] the EC50 was ≤ 250 nM.
In the case of `CNC(=O)O[C@H]1CC[C@H](C(=O)N(CC23CCC(c4ccc(OC)c(C)c4)(CC2)CC3)c2cccc(-c3coc(C4CC4)n3)c2)CC1` [Compound 2.07, 4-((3-(2-Cyclopropyloxazol-4-yl)phenyl)((4-(4-methoxy-3-methylphenyl)bicyclo[2.2.2]octan-1-yl)methyl)carbamoyl)cyclohexyl trans-methylcarbamate], the EC50 is reported as ≤ 250 nM.
For `CNC(=O)O[C@H]1CC[C@H](C(=O)N(CC23CCC(c4ccc(OC)c(C)c4)(CC2)CC3)c2cccc(-c3cc(C4CC4)ns3)c2)CC1` [Compound 2.08, 4-((3-(3-Cyclopropylisothiazol-5-yl)phenyl)((4-(4-methoxy-3-methylphenyl)bicyclo[2.2.2]octan-1-yl)methyl)carbamoyl)cyclohexyl trans-methylcarbamate], the EC50 was ≤ 250 nM.
